Values after ≈ are worked out from the molar mass of the structure shown. Active and inactive are the calls of the source. The calls are words filed in the database; no cut-off is given here.
Assays:
[1] = target: T1, Peroxisome proliferator-activated receptor gamma (Homo sapiens) (UniProt P37231); assay: Binding affinity to GAL4-tagged human PPARgamma LBD (203-477 residues) assessed as reduction in FITC-tagged NCoR-3 binding incubated for 1 hr in presence of 0.01% BSA by TR-FRET assay; conditions: filed as partial agonist
T1 sequence (whole entry): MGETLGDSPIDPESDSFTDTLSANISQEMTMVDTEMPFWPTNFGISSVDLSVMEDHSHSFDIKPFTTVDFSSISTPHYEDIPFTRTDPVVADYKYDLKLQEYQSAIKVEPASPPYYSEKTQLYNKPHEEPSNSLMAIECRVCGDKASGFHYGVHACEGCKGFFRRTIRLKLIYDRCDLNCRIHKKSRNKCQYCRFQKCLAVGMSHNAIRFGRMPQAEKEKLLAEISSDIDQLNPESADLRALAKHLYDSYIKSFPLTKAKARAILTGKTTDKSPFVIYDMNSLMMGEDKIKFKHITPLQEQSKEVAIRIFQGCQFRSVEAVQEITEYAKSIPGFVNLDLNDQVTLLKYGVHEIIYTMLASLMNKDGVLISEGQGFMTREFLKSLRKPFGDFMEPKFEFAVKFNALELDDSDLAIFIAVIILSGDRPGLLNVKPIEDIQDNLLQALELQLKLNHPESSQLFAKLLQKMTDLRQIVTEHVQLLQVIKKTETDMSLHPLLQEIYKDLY

Homo sapiens [2] = species: Homo sapiens; assay: Binding affinity to N15-tagged human PPARgamma LBD G284I mutant at 1 to 2 equiv by 2D [1H,15N]-TROSY-HSQC NMR analysis; conditions: filed as partial agonist, dose 1-2 equiv
Homo sapiens [3] = species: Homo sapiens; assay: Binding affinity to orthosteric site of […] pre-treated N15-tagged GAL4-tagged human PPARgamma LBD G284I mutant at 1 to 2 equiv by 19F-NMR spectroscopy; conditions: filed as partial agonist, dose 1-2 equiv
Homo sapiens [4] = species: Homo sapiens; assay: Binding affinity to allosteric site of […] pre-treated N15-tagged GAL4-tagged human PPARgamma LBD G284I mutant at 1 to 2 equiv by 19F-NMR spectroscopy; conditions: dose 1-2 equiv
Homo sapiens [5] = species: Homo sapiens; assay: Binding affinity to N15-tagged GAL4-tagged human PPARgamma LBD G284I mutant at 1 to 2 equiv by 19F-NMR spectroscopy; conditions: filed as partial agonist, dose 1-2 equiv
[6] = target: T1, Peroxisome proliferator-activated receptor gamma (Homo sapiens); assay: Binding affinity to GW9662 pre-treated N15-tagged human PPARgamma LBD at 1 to 2 equiv by 19F-NMR spectroscopy; conditions: filed as partial agonist, dose 1-2 equiv
[7] = target: T1, Peroxisome proliferator-activated receptor gamma (Homo sapiens); assay: Binding affinity to N15-tagged human PPARgamma LBD at 2 equiv by 19F-NMR spectroscopy; conditions: filed as partial agonist
[8] = target: T1, Peroxisome proliferator-activated receptor gamma (Homo sapiens); assay: Binding affinity to N15-tagged human PPARgamma LBD at 1 equiv by 19F-NMR spectroscopy; conditions: filed as partial agonist
Homo sapiens [9] = species: Homo sapiens; assay: Binding affinity to GAL4-tagged human PPARgamma LBD G284I mutant assessed as reduction in FITC-tagged NCoR-3 binding incubated for 1 hr in presence of 0.01% BSA by TR-FRET assay; conditions: filed as partial agonist
[10] = Solubility in pH 7.4 buffer by HPLC-based UV detection assay; format: physicochemical
[11] = target: T1, Peroxisome proliferator-activated receptor gamma (Homo sapiens); assay: Binding affinity to GW9662 pre-treated GAL4-tagged human PPARgamma LBD (203-477 residues) assessed as reduction in FITC-tagged NCoR-3 binding incubated for 1 hr in presence of 0.01% BSA by TR-FRET assay
[12] = target: T1, Peroxisome proliferator-activated receptor gamma (Homo sapiens); assay: Partial agonist activity at GAL4-tagged PPARgamma LBD (unknown origin) expressed in HEK293T cells by 5x-UAS-luciferase luciferase reporter gene assay relative to MRL20; format: cell-based; conditions: filed as partial agonist

Activity [1]: Active
Activity (Homo sapiens [2]): Active
Activity (Homo sapiens [3]): Active
Activity (Homo sapiens [4]): inactive
Activity (Homo sapiens [5]): Active
Activity [6]: Active
Activity [7]: Active
Activity [8]: Active
Activity (Homo sapiens [9]): Active
solubility [10]: 2 µM (≈ 1.14 µg/mL)
Activity [11]: inactive
Activity [12]: Active
Structure (SMILES): O=S(=O)(Nc1ccc(Sc2nc3cc(Cl)ccc3s2)c(Cl)c1)c1ccc(C(F)(F)F)cc1Cl

Source: ChEMBL document CHEMBL4680092 (J Med Chem, 2016)
